What was measured:
CB1 receptor = CB1 receptor (Homo sapiens, UniProt P21554); assay: CB1 competitive radioligand binding assay ([3H] SR141716A); set-up: expressed in transfected cells; host or cells: Chem-1 cells; conditions: for inhibition at 0.5 µM: 0.5 μM compound, 2.0 nM [3H] SR141716A, 90 min 37° C.
Description: (§1) J Med Chem. 41(26): 5177-5187 (1998); and Munro S., et al. Molecular characterization of a peripheral receptor for cannabinoids. Nature 365:61-65 (1993).
CB1 Radioligand Binding Assay: A compound of the invention (0.5 μM in 1% DMSO) was incubated with Chem-1 cells expressing human recombinant CB1 receptor in buffer (50 mM HEPES, pH 7.4, 5 mM MgCl2, 1 mM CaCl2, 0.2% BSA) for 90 minutes at 37° C. in the presence of 2.0 nM [H^3] SR141716A (CB1 radioligand). % Inhibition was determined as a function of radioligand binding to the CB1 receptor.

CB2 receptor = CB2 receptor (Homo sapiens, UniProt P34972); assay: CB2 competitive radioligand binding assay ([3H] WIN-55,212-2); set-up: expressed in transfected cells; host or cells: CHO-K1 cells; conditions: for inhibition at 0.05 µM: 0.05 μM compound, 2.4 nM [3H] WIN-55,212-2, 90 min 37° C.
Description: as §1
CB2 Radioligand Binding Assay: A compound of the invention (0.05 μM in 1% DMSO) was incubated with CHO-K1 cells expressing human recombinant CB2 receptor in buffer (20 mM HEPES, pH 7.0, 0.5% BSA) for 90 minutes at 37° C. in the presence of 2.4 nM [H^3] WIN-55,212-2 (CB2 radioligand). % Inhibition was determined as a function of radioligand binding to the […].

LPS-induced PBMCs = assay: Inflammatory cytokine release from LPS-induced PBMCs (Luminex); format: cell-based, human; conditions: fold change from LPS-treated PBMCs, compounds 10 μM (DEX 1 μg/ml) 2 h, then LPS 0.1 μg/ml 24 h, negative = reduced
Description: Compounds of the invention were assayed for their effect on inflammatory cytokine release from lipopolysaccharides (LPS)-induced PBMCs, isolated from a human blood sample, the results of which are provided in Table 7 as fold change. Exemplary methods for quantifying secretion of inflammatory cytokines in PBMCs are known in the art, for example, as described in Hailer et al., Infection and Immunity. 68(2):752-759 (2000); and Merlini et al., Frontiers in Immunology. 7:614 (2016); each of which is incorporated herein by reference with respect to methods for evaluating cytokine release in PBMCs.
In brief, human blood samples from healthy volunteers were collected and PBMCs were isolated. PBMCs were cultured and each compound was assayed in triplicate at a final concentration of 10 μM for 2 hours. 1 μg/ml dexamethasone (DEX) served as a positive control. LPS was added at a final concentration of 0.1 μg/ml and further incubated for 24 hours. At the end of the incubation, the supernatants were collected and the levels of a panel of secreted cytokines were measured by a Human Magnetic Luminex® assay (R&D). The results in Table 7 are presented as a fold change from LPS-treated PBMCs. Reduced levels are expressed by negative values. OOR denotes values that are out of the standard curve range for the specific cytokine and thus, could not be accurately measured. Cytotoxicity was also determined. Compounds with cytotoxicity ≥50% was considered cytotoxic. Baseline cytotoxicity of untreated PBMCs was 17% and all compounds presented in Table 7 induced cytotoxicity below 25%.

[1] = OOR = out of standard curve range

CB2 receptor, sequence (P34972 whole entry): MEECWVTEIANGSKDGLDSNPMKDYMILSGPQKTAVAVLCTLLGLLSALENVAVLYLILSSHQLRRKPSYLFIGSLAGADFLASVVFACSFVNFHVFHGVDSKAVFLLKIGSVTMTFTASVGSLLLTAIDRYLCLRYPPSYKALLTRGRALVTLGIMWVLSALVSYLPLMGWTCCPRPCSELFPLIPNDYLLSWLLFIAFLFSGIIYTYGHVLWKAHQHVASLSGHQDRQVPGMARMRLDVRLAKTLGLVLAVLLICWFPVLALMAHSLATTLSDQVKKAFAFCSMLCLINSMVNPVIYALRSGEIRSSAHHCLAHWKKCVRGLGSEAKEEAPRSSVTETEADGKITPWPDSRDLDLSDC
CB1 receptor, sequence (P21554 whole entry): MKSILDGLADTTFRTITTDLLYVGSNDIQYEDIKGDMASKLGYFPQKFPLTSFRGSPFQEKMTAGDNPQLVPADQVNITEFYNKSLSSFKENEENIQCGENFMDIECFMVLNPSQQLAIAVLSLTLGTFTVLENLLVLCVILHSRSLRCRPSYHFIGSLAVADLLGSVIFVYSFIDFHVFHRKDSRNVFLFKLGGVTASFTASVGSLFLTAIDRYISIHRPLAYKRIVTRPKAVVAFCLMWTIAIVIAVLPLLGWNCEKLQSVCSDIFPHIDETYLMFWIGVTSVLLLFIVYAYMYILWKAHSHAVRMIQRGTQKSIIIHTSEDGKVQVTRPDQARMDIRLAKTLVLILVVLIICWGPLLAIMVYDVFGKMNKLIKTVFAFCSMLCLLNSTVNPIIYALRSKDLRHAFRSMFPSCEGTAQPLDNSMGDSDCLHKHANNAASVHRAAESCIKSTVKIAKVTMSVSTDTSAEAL

Row | SMILES | Ki (CB1 receptor) [µM] | Ki (CB2 receptor) [µM] | inhibition at 0.5 µM (CB1 receptor) [%] | inhibition at 0.05 µM (CB2 receptor) [%] | Fold Selectivity (CB1/CB2) (CB2 receptor; Table 3, ratio of Ki CB1/CB2) | also measured
1 | CCCCCCC(C)(C)c1c(Cl)c(O)c2c(c1Cl)OC(C)(C)[C@@H]1CC=C(C(=O)O)C[C@@H]21 [Compound 113, (6aR,10aR)-2,4-dichloro-1-hydroxy-6,6-dimethyl-3-(2-methyloctan-2-yl)-6a,7,10,10a-tetrahydro-6H-benzo[c]chromene-9-carboxylic acid] | > 3 | > 3 |  |  |  | 
2 | CCCCCCCC(C)(C)c1cc(O)c2c(c1)OC(C)(C)[C@@H]1CC=C(C(=O)O)C[C@@H]21 [Compound 9, (6aR,10aR)-1-Hydroxy-6,6-dimethyl-3-(2-methylnonan-2-yl)-6a,7,10,10a-tetrahydro-6H-benzo[c]chromene-9-carboxylic acid] |  |  | -8 | 18 |  | 
3 | CCCCCCC(C)(C)c1cc(O)c2c(c1)OC(C)(C)[C@@H]1CC=C(C(=O)NC34CC5CC(CC(C5)C3)C4)C[C@@H]21 [Compound 42, (6aR,10aR)-N-(adamantan-1-yl)-1-hydroxy-6,6-dimethyl-3-(2-methyloctan-2-yl)-6a,7,10,10a-tetrahydro-6H-benzo[c]chromene-9-carboxamide] | 0.0595 | 0.175 |  |  | 0.3 | 
4 | CCCCCCC(C)(C)c1cc(O)c2c(c1)OC(C)(C)[C@@H]1CC=C(C(=O)N[C@@H](C)CCO)C[C@@H]21 [Compound 98, (6aR,10aR)-1-hydroxy-N—((S)-4-hydroxybutan-2-yl)-6,6-dimethyl-3-(2-methyloctan-2-yl)-6a,7,10,10a-tetrahydro-6H-benzo[c]chromene-9-carboxamide] | 0.32 | 0.01 |  |  | 32.0 | 
5 | CCCCCCC(C)(C)c1cc(O)c2c(c1)OC(C)(C)[C@@H]1CC=C(C(N)=O)C[C@@H]21 [Compound 4, (6aR,10aR)-1-Hydroxy-6,6-dimethyl-3-(2-methyloctan-2-yl)-6a,7,10,10a-tetrahydro-6H-benzo[c]chromene-9-carboxamide] |  |  | 70 | 57 |  | 
6 | CCCCCCC(C)(C)c1cc(OC)c2c(c1)OC(C)(C)[C@@H]1CC=C(C(=O)NCCO)C[C@@H]21 [Compound 7, (6aR,10aR)-N-(2-Hydroxyethyl)-1-methoxy-6,6-dimethyl-3-(2-methyloctan-2-yl)-6a,7,10,10a-tetrahydro-6H-benzo[c]chromene-9-carboxamide] |  |  | 21 | 11 |  | 
7 | CCCCCCC(C)(C)c1cc(O)c2c(c1)OC(C)(C)[C@@H]1CC=C(C(=O)NC34CC5CC(CC(O)(C5)C3)C4)C[C@@H]21 [Compound 43, (6aR,10aR)-1-hydroxy-N-(3-hydroxyadamantan-1-yl)-6,6-dimethyl-3-(2-methyloctan-2-yl)-6a,7,10,10a-tetrahydro-6H-benzo[c]chromene-9-carboxamide] | 0.891 | 0.0756 |  |  | 11.8 | 
8 | CCCC(C)(C)c1cc(O)c2c(c1)OC(C)(C)[C@@H]1CC=C(C(=O)NC(C)(C)C(F)(F)F)C[C@@H]21 [Compound 101] | > 5 | 0.084 |  |  | >60 | 
9 | CCCCCCC(C)(C)c1cc(O)c2c(c1)OC(C)(C)[C@@H]1CC=C(C(=O)N[C@H]3CC[C@H](O)CC3)C[C@@H]21 [Compound 17, (6aR,10aR)-1-Hydroxy-N-(trans-4-hydroxycyclohexyl)-6,6-dimethyl-3-(2-methyloctan-2-yl)-6a,7,10,10a-tetrahydro-6H-benzo[c]chromene-9-carboxamide] |  |  | 23 | 8 |  | 
10 | CCCCCCC(C)(C)c1cc(O)c2c(c1)OC(C)(C)[C@@H]1CC=C(C(=O)NC#N)C[C@@H]21 [Compound 106, (6aR,10aR)-N-cyano-1-hydroxy-6,6-dimethyl-3-(2-methyloctan-2-yl)-6a,7,10,10a-tetrahydro-6H-benzo[c]chromene-9-carboxamide] | 0.803 | 0.81 |  |  | 1.0 | 
11 | C[C@@H]1C[C@H]2[C@@H]3CCC4=CC(=O)C=C[C@]4(C)[C@@]3(F)[C@@H](O)C[C@]2(C)[C@@]1(O)C(=O)CO [DEX, dexamethasone, reference compound] |  |  |  |  |  | IL17A (LPS-induced PBMCs): −1.5 fold change; IL-1β (LPS-induced PBMCs): −3.8 fold change; IL-4 (LPS-induced PBMCs): −1.5 fold change; IL-6 (LPS-induced PBMCs): −3.9 fold change; IL-8 (LPS-induced PBMCs): −1.0 fold change; IL-10 (LPS-induced PBMCs): −2.0 fold change; MCP-1 (LPS-induced PBMCs): −1.7 fold change; TNFα (LPS-induced PBMCs): −6.0 fold change; IL-12 (p70) (LPS-induced PBMCs; [1]): −4.5 fold change; L-31 (LPS-induced PBMCs; [1]): −1.6 fold change
12 | CCCCCCC(C)(C)c1cc(OC(C)=O)c2c(c1)OC(C)(C)[C@@H]1CC=C(C#N)C[C@@H]21 [Compound 19, (6aR,10aR)-9-Cyano-6,6-dimethyl-3-(2-methyloctan-2-yl)-6a,7,10,10a-tetrahydro-6H-benzo[c]chromen-1-yl acetate] | 0.0068 | 0.0019 | 111 | 115 |  | Fold Selectivity (CB1/CB2) (CB2 receptor; Table 2, ratio of Ki CB1/CB2): 4
13 | CC(C)(CCCCCC(=O)O)c1cc(O)c2c(c1)OC(C)(C)[C@@H]1CC=C(C(=O)O)C[C@@H]21 [Compound 111, (6aR,10aR)-3-(7-carboxy-2-methylheptan-2-yl)-1-hydroxy-6,6-dimethyl-6a,7,10,10a-tetrahydro-6H-benzo[c]chromene-9-carboxylic acid] | > 3 | > 3 |  |  |  | 
14 | CCCCCCC(C)(C)c1cc(O)c2c(c1)OC(C)(C)[C@@H]1CC=C(C(=O)N[C@H]3CC[C@@H](O)CC3)C[C@@H]21 [Compound 18, (6aR,10aR)-1-Hydroxy-N-(cis-4-hydroxycyclohexyl)-6,6-dimethyl-3-(2-methyloctan-2-yl)-6a,7,10,10a-tetrahydro-6H-benzo[c]chromene-9-carboxamide] |  |  | 5 | 26 |  | 
15 | CCCCCCC(C)(C)c1cc(O)c2c(c1)OC(C)(C)[C@@H]1CC=C(C(=O)Oc3ccc(C(N)=S)cc3)C[C@@H]21 [Compound 10, 4-Carbamothioylphenyl (6aR,10aR)-1-hydroxy-6,6-dimethyl-3-(2-methyloctan-2-yl)-6a,7,10,10a-tetrahydro-6H-benzo[c]chromene-9-carboxylate] |  |  | 7 | 11 |  | 

— patent US20210284621A1 (priority 2018, published 2021)
